From PMC7269146, “Jingzhaotoxin-X, a gating modifier of Kv4.2 and Kv4.3 potassium channels purified from the venom of the Chinese tarantula Chilobrachys jingzhao” (The Journal of Venomous Animals and Toxins Including …, 2020)
Where a SMILES comes first, the peptide text is derived from it. Bridges are numbered along the chain shown (N, C = ends).

Experiments:
Kv4.2 = target: T1, Kv4.2 (Rattus norvegicus, UniProt Q63881); assay: paired-pulse protocol, recovery from inactivation of Kv4.2; format: cell-based; conditions: n = 7
T1 construct: expressed in transfected cells; host or cells: HEK293t
T1 sequence (Q63881 1-630): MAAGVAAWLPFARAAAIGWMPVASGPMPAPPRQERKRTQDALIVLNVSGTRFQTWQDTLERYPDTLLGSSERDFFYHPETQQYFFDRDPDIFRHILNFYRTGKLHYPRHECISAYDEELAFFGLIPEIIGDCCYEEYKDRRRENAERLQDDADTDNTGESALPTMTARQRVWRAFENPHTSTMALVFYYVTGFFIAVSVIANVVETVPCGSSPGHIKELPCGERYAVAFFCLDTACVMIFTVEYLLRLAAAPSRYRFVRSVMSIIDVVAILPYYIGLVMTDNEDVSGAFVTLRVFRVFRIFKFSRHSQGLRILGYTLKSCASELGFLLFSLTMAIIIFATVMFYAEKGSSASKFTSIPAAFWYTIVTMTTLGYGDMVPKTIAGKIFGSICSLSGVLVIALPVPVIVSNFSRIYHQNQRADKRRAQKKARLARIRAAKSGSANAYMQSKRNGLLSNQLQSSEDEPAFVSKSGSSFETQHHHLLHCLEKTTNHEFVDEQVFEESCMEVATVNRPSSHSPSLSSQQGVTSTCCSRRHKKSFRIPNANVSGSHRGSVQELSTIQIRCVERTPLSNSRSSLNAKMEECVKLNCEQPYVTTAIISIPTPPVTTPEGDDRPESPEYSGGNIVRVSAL
Text: Rat cDNA genes encoding Kv4.2 (Accession: NM_031730.2) and Kv4.3 (Accession: AB003587.1) were subcloned to vector pcDNA3.1. In addition, human cDNA genes encoding Nav1.7 (Accession: DQ857292.1) and Nav1.5 (Accession: AB158469.2) were subcloned to vectors pcDNA3.1-mod and pcDNA3.1, separately. Then, Kv4.2, Kv4.3, Nav1.5 and Nav1.7 constructs were transiently transfected into the human embryonic kidney 293t (HEK293t) cells using lipofectamine 2000 (Invitrogen, USA) in accordance with manufacturer protocols. Thereafter, HEK293 cells were inoculated within Dulbecco’s modified Eagle’s medium (DMEM) containing 10% fetal bovine serum (FBS) at 5% CO2 and 37°C. The Kv4.3 channel and the Kv4.2 counterpart were then transfected in the absence of β subunit. Subsequently, cells were incubated with a DNA-lipofectamine mixture (one reporter plasmid for green fluorescence protein and channel constructs) for 4-6 h, and were washed with the fresh medium. […]
Figure 7. […] Thereafter, those elicited peak currents in test pulses were determined and standardized based on the peak currents for conditioning pulses within the identical cell. […] ( B ) The standardized recovery data were expressed as mean ± S.E. (n = 7), plotted as a function of inter-pulse interval, and fitted to one singular exponential function.

[1] = rotarod performance test in mice; format: in vivo, mouse (male C57BL/6); conditions: 40 nmol/kg, n = 8; for time on accelerating rotarod: 1 h following treatment, cutoff 300 s
Protocol: In the present study, male C57BL/6 mice weighing 20-25 g were utilized. This study was performed following the Guide for the Care and Use of Laboratory Animals released by the United States National Institutes of Health (US NIH). Our study protocol was approved by the Animal Experiments Ethics Committee at Central Southern University (No. 2018-2-6). Each operation was performed under isoflurane-induced anesthesia to reduce pain and minimize animal suffering. Lumbar puncture was also conducted for intrathecal injection, as described previously. Next, the effect of JZTX-X on nociception was evaluated by assessing the behaviors during the mechanical hyperalgesia process. The JZTX-X-induced mechanical hyperalgesia was investigated by two experiments via various administration routes, including intrathecal and intraplantar injections. Then, animals were challenged via intrathecal (10 µL) or intraplantar (20 µL) injection of JZTX-X (40 nmol/kg). The control group was given a physiological solution, which contained 0.9% NaCl, […].
A rotarod accelerator treadmill (Med Associates Inc., St. Albans, VT) was utilized for rotarod performance tests, so as to determine […] motor function as previously described. Motor learning was also carried out by rotarod tests for evaluating the mice’s capacity to stay on the accelerating rotating drum. In JZTX-X- and saline- groups, all animals were acclimated for 30 min within the testing room, and placed for 300 s onto the rotarod that accelerated from 4 to 40 rpm. In addition, the latency time for animals falling from the rod was calculated before and after toxin injection, from the beginning of acceleration to falling onto the drum, and the maximum cutoff time was 300 s.

CC(C)C[C@@H]1NC(=O)[C@H](CCCCN)NC(=O)[C@H](Cc2ccc(O)cc2)NC(=O)[C@@H]2CSSC[C@@H]3NC(=O)[C@H](Cc4ccc(O)cc4)NC(=O)[C@H](Cc4ccccc4)NC(=O)CNC(=O)[C@H](C)NC(=O)[C@H](CSSC[C@H](NC(=O)[C@@H](N)CC(C)C)C(=O)N[C@@H](CO)C(=O)N[C@@H](CCCNC(=N)N)C(=O)N[C@@H](CCC(=O)O)C(=O)NCC(=O)N[C@@H](CCC(=O)O)C(=O)N[C@@H](Cc4ccccc4)C(=O)N2)NC(=O)[C@H](CSSC[C@@H](C(=O)N[C@@H](Cc2ccc(O)cc2)C(=O)N[C@@H](CCCNC(=N)N)C(=O)N[C@@H](CC(N)=O)C(=O)O)NC(=O)[C@H](Cc2c[nH]cn2)NC(=O)[C@H](CC(C)C)NC(=O)[C@H](C(C)C)NC(=O)[C@H](Cc2ccccc2)NC(=O)[C@H](C)NC(=O)[C@H](CCCCN)NC3=O)NC(=O)[C@H](CCCCN)NC(=O)[C@H](CCCNC(=N)N)NC1=O [JZTX-X, Jingzhaotoxin-X] (H-LCSREGEFCYKLRKCCAGFYCKAFVLHCYRN-OH; disulfide 2-16, 9-21, 15-28; N-terminus assumed)
effect on recovery of Kv4.2 (Kv4.2; paired-pulse protocol): remarkably accelerated the recovery of Kv4.2 channel inhibition
time constant of recovery from inactivation, Kv4.2 (Kv4.2; toxin concentration not given, control 195.3 ± 31.6 ms, P<0.05, single exponential): 130.2 ± 25.3 ms
effect on motor coordination ([1]; intrathecal and intraplantar): made no difference to the motor coordination in mice
time on accelerating rotarod ([1]; intraplantar, vehicle 118.8 ± 9.8 s): 113.4 ± 8.3 s
time on accelerating rotarod ([1]; intrathecal, vehicle 117.9 ± 7.6 s): 117.5 ± 7.8 s
